In brackets after ≈: the same amount, converted by molar mass.
What was measured:
Haemophilus influenzae [1] = test: Minimum concentration required for inhibition of Haemophilus influenzae was determined.; format: functional
Staphylococcus aureus [2] = test: Minimum concentration required for inhibition of Staphylococcus aureus was determined.; format: functional
Enterococcus faecalis [3] = test: Minimum concentration required for inhibition of Enterococcus faecalis was determined.; format: functional
[4] = biological target: T1, Enoyl-[acyl-carrier-protein] reductase [NADPH] FabI (Staphylococcus aureus, UniProt Q6GI75); test: Concentration required for the 50% inhibition of enoyl-ACP reductase from Staphylococcus aureus was determined.
T1 sequence (Q6GI75 whole entry): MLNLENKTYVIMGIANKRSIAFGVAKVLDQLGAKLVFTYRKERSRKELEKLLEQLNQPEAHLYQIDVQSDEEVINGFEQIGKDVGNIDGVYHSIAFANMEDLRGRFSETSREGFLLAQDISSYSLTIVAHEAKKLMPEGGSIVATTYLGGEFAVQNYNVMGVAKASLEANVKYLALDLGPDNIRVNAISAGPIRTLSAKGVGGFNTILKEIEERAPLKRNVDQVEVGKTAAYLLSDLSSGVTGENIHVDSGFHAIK

Streptococcus pneumoniae [5] = test: Minimum concentration required for inhibition of Streptococcus pneumoniae was determined.; format: functional
[6] = Concentration required for the 50% inhibition of enoyl-ACP reductase from Haemophilus influenzae was determined.
[7] = Compound was measured for the inhibition of enoyl-ACP reductase from Haemophilus influenzae
Enterococcus faecalis [8] = test: Minimum inhibitory concentration against growth of Enterococcus faecalis; format: functional
Haemophilus influenzae [9] = test: Antibacterial activity was measured against Haemophilus influenzae; format: functional
[10] = Compound was measured for the inhibition of enoyl-ACP reductase from Staphylococcus aureus
Streptococcus pneumoniae [11] = test: Minimum inhibitory concentration against growth of Streptococcus pneumoniae; format: functional
Staphylococcus aureus [12] = test: Antibacterial activity was measured against Staphylococcus aureus; format: functional
[13] = Inhibitory concentration against Streptococcus pneumoniae Enoyl-ACP reductase
Staphylococcus aureus [14] = test: Minimum concentration required for the inhibition of Staphylococcus aureus was determined.; format: functional
Haemophilus influenzae [15] = test: Minimum concentration required for the inhibition of Haemophilus influenzae was determined.; format: functional
[16] = Concentration required for the 50% inhibition of Enoyl-ACP reductase from Streptococcus pneumoniae was determined.
Moraxella catarrhalis = test: Minimum concentration required for inhibition of Moraxella catarrhalis was determined.; format: functional
Escherichia coli = test: Minimum concentration required for inhibition of Escherichia coli AcrAB was determined.; format: functional

Compound | MIC (Haemophilus influenzae [1]) | MIC (Staphylococcus aureus [2]) | MIC (Enterococcus faecalis [3]) | IC50 [4] | MIC (Streptococcus pneumoniae [5]) | IC50 [6] | other results
CN(Cc1cc2ccccc2n1C)C(=O)c1ccc(N)cc1 | > 64 µg/mL | 32 µg/mL (≈ 109 µM) | > 64 µg/mL | 16.3 µM | > 64 µg/mL | 2.6 µM | 
CN1Cc2cc(C(=O)N(C)Cc3cc4ccccc4n3C)ccc2NCC1=O | > 64 µg/mL | 16 µg/mL (≈ 42.5 µM) | > 64 µg/mL | 21.2 µM | > 64 µg/mL | 2.5 µM | 
CN(Cc1cc2ccccc2n1C)C(=O)c1ccc(N)nc1 | > 64 µg/mL | > 64 µg/mL | > 64 µg/mL | > 100 µM | > 64 µg/mL | 19.2 µM | 
CN(Cc1cc2ccccc2n1C)C(=O)/C=C/c1cnc(N)nc1 | > 64 µg/mL | 2 µg/mL (≈ 6.22 µM) | > 64 µg/mL | 2.2 µM | > 64 µg/mL | 4.3 µM | 
CN(Cc1cc2ccccc2n1C)C(=O)c1ccc2c(c1)CN(C)C(=O)[C@H](C(=O)O)N2 | > 64 µg/mL | > 64 µg/mL | > 64 µg/mL | 676 µM | > 64 µg/mL | > 100 µM | 
CN(Cc1cc2ccccc2n1C)C(=O)/C=C/c1ccc(N)cc1 |  |  |  |  |  |  | IC50 [7]: 9 µM; MIC (Enterococcus faecalis [8]): > 64 µg/mL; MIC (Haemophilus influenzae [9]): > 64 µg/mL; IC50 [10]: > 11.2 µM; MIC (Streptococcus pneumoniae [11]): > 64 µg/mL; MIC (Staphylococcus aureus [12]): 32 µg/mL (≈ 100 µM); IC50 [13]: > 30 µM
Oc1cc(Cl)ccc1Oc1ccc(Cl)cc1Cl [TRICLOSAN] |  |  |  |  |  |  | MIC (Staphylococcus aureus [14]): ≤ 0.06 µg/mL; MIC (Haemophilus influenzae [15]): ≤ 0.06 µg/mL; IC50 [16]: > 30 µM
CN(Cc1cc2ccccc2n1C)C(=O)/C=C/c1cccnc1 | > 64 µg/mL | 16 µg/mL (≈ 52.4 µM) | > 64 µg/mL | 14.2 µM | > 64 µg/mL | 15.2 µM | 
CN(Cc1cc2ccccc2n1C)C(=O)/C=C/c1ccc(N)nc1 | > 64 µg/mL | 0.5 µg/mL (≈ 1.56 µM) | > 64 µg/mL | 2.4 µM | > 64 µg/mL | 4.2 µM | MIC (Moraxella catarrhalis): 4 µg/mL (≈ 12.5 µM); MIC (Escherichia coli): 8 µg/mL (≈ 25 µM)
CC(=O)N(C)Cc1cccc(C(=O)N(C)Cc2cc3ccccc3n2C)c1 | > 64 µg/mL | > 64 µg/mL | > 64 µg/mL | 107 µM | > 64 µg/mL | 121 µM | 
COC(=O)CC1Nc2ccc(C(=O)N(C)Cc3cc4ccccc4n3C)cc2CN(C)C1=O (stereo unspecified) | > 64 µg/mL | > 64 µg/mL | > 64 µg/mL | 16.5 µM | > 64 µg/mL | 6.9 µM | MIC (Moraxella catarrhalis): 32 µg/mL (≈ 71.3 µM)
CN(Cc1cc2ccccc2n1C)C(=O)CCc1ccc(N)nc1 | > 64 µg/mL | > 64 µg/mL | > 64 µg/mL | 93.7 µM | > 64 µg/mL | 97.4 µM | 
CC(=O)N(C)Cc1cc(C(=O)N(C)Cc2cc3ccccc3n2C)ccc1N | > 64 µg/mL | 16 µg/mL (≈ 42.3 µM) | > 64 µg/mL | 6.7 µM | > 64 µg/mL | 4.7 µM | 
COC(=O)C[C@H]1Nc2ccc(C(=O)N(C)Cc3cc4ccccc4n3C)cc2CN(C)C1=O | > 64 µg/mL | > 64 µg/mL | > 64 µg/mL | 9.9 µM | > 64 µg/mL | 5.1 µM | 
CN(Cc1cc2ccccc2n1C)C(=O)c1ccccc1 | > 64 µg/mL | > 64 µg/mL | > 64 µg/mL | > 100 µM | > 64 µg/mL | > 100 µM | 
